Test results from ChEMBL document CHEMBL4808193, “[11]-Chaetoglobosins from Pseudeurotium bakeri Induce G2/M Cell Cycle Arrest and Apoptosis in Human Cancer Cells” (J Nat Prod, 2021).
Where a name gives a salt, the structure may show the parent alone.

Columns and labels:
[1] = system: HT-29; assay: Cytotoxicity against human HT-29 cells assessed as reduction in cell viability by MTT assay; format: functional, cell-based
[2] = system: HCT-116; assay: Cytotoxicity against human HCT-116 cells assessed as reduction in cell viability by MTT assay; format: functional, cell-based
[3] = system: A-427; assay: Cytotoxicity against human A-427 cells assessed as reduction in cell viability by MTT assay; format: functional, cell-based
[4] = system: L02; assay: Cytotoxicity against human L02 cells assessed as reduction in cell viability by MTT assay; format: cell-based
[5] = system: A549; assay: Cytotoxicity against human A549 cells assessed as reduction in cell viability by MTT assay; format: functional, cell-based
[6] = system: HeLa; assay: Cytotoxicity against human HeLa cells assessed as reduction in cell viability by MTT assay; format: functional, cell-based
[7] = system: MCF7; assay: Cytotoxicity against human MCF7 cells assessed as reduction in cell viability by MTT assay; format: functional, cell-based
[8] = system: HepG2; assay: Cytotoxicity against human HepG2 cells assessed as reduction in cell viability by MTT assay; format: functional, cell-based
[9] = system: A-427; assay: Cell cycle arrest in human A-427 cells assessed as accumulation at G2/M phase at 10 uM measured after 24 hrs by PI staining based flow cytometry (reference value: 18.80%); format: functional
[10] = system: A-427; assay: Cell cycle arrest in human A-427 cells assessed as accumulation at S phase at 5 uM measured after 24 hrs by PI staining based flow cytometry (reference value: 33.14%); format: functional
[11] = system: MCF7; assay: Induction of apoptosis in human MCF7 cells assessed as early apoptotic cells at 10 uM measured after 24 hrs by Annexin V-FITC/propidium iodide staining based flow cytometric analysis (reference value: 1.49%); format: functional
[12] = system: A-427; assay: Cell cycle arrest in human A-427 cells assessed as accumulation at G2/M phase at 2.5 uM measured after 24 hrs by PI staining based flow cytometry (reference value: 18.80%); format: functional
[13] = system: MCF7; assay: Cell cycle arrest in human MCF7 cells assessed as accumulation at G2/M phase at 3 uM measured after 24 hrs by PI staining based flow cytometry (reference value: 15.28%); format: functional
[14] = system: MCF7; assay: Cell cycle arrest in human MCF7 cells assessed as accumulation at G0/G1 phase at 4.5 uM measured after 24 hrs by PI staining based flow cytometry (reference value: 50.58%); format: functional
[15] = system: MCF7; assay: Induction of apoptosis in human MCF7 cells assessed as late apoptotic cells at 10 uM measured after 24 hrs by Annexin V-FITC/propidium iodide staining based flow cytometric analysis (reference value: 0.38%); format: functional
[16] = system: MCF7; assay: Induction of apoptosis in human MCF7 cells assessed as early apoptotic cells at 5 uM measured after 24 hrs by Annexin V-FITC/propidium iodide staining based flow cytometric analysis (reference value: 1.49%); format: functional
[17] = system: A-427; assay: Cell cycle arrest in human A-427 cells assessed as accumulation at G0/G1 phase at 10 uM measured after 24 hrs by PI staining based flow cytometry (reference value: 48.06%); format: functional
[18] = system: A-427; assay: Cell cycle arrest in human A-427 cells assessed as accumulation at S phase at 2.5 uM measured after 24 hrs by PI staining based flow cytometry (reference value: 33.14%); format: functional
[19] = system: A-427; assay: Cell cycle arrest in human A-427 cells assessed as accumulation at G0/G1 phase at 5 uM measured after 24 hrs by PI staining based flow cytometry (reference value: 48.06%); format: functional
[20] = system: A-427; assay: Induction of apoptosis in human A-427 cells assessed as early apoptotic cells at 2.5 uM measured after 24 hrs by Annexin V-FITC/propidium iodide staining based flow cytometric analysis (reference value: 6.58%); format: functional
[21] = system: MCF7; assay: Cell cycle arrest in human MCF7 cells assessed as accumulation at G0/G1 phase at 1.5 uM measured after 24 hrs by PI staining based flow cytometry (reference value: 50.58%); format: functional
[22] = system: A-427; assay: Induction of apoptosis in human A-427 cells assessed as late apoptotic cells at 5 uM measured after 24 hrs by Annexin V-FITC/propidium iodide staining based flow cytometric analysis (reference value: 2.06%); format: functional
[23] = system: MCF7; assay: Cell cycle arrest in human MCF7 cells assessed as accumulation at S phase at 3 uM measured after 24 hrs by PI staining based flow cytometry (reference value: 34.14%; format: functional
[24] = system: A-427; assay: Induction of apoptosis in human A-427 cells assessed as early apoptotic cells at 10 uM measured after 24 hrs by Annexin V-FITC/propidium iodide staining based flow cytometric analysis (reference value: 6.58%); format: functional
[25] = system: MCF7; assay: Cell cycle arrest in human MCF7 cells assessed as accumulation at S phase at 4.5 uM measured after 24 hrs by PI staining based flow cytometry (reference value: 34.14%); format: functional
[26] = system: MCF7; assay: Induction of apoptosis in human MCF7 cells assessed as early apoptotic cells at 15 uM measured after 24 hrs by Annexin V-FITC/propidium iodide staining based flow cytometric analysis (reference value: 1.49%); format: functional
[27] = system: A-427; assay: Cell cycle arrest in human A-427 cells assessed as accumulation at G0/G1 phase at 2.5 uM measured after 24 hrs by PI staining based flow cytometry (reference value: 48.06%); format: functional
[28] = system: MCF7; assay: Induction of apoptosis in human MCF7 cells assessed as late apoptotic cells at 15 uM measured after 24 hrs by Annexin V-FITC/propidium iodide staining based flow cytometric analysis (reference value: 0.38%); format: functional
[29] = system: MCF7; assay: Cell cycle arrest in human MCF7 cells assessed as accumulation at S phase at 1.5 uM measured after 24 hrs by PI staining based flow cytometry (reference value: 34.14%); format: functional
[30] = system: MCF7; assay: Cell cycle arrest in human MCF7 cells assessed as accumulation at G2/M phase at 4.5 uM measured after 24 hrs by PI staining based flow cytometry (reference value: 15.28%); format: functional
[31] = system: A-427; assay: Cell cycle arrest in human A-427 cells assessed as accumulation at S phase at 10 uM measured after 24 hrs by PI staining based flow cytometry (reference value: 33.14%); format: functional
[32] = system: A-427; assay: Induction of apoptosis in human A-427 cells assessed as early apoptotic cells at 5 uM measured after 24 hrs by Annexin V-FITC/propidium iodide staining based flow cytometric analysis (reference value: 6.58%); format: functional
[33] = system: MCF7; assay: Cell cycle arrest in human MCF7 cells assessed as accumulation at G0/G1 phase at 3 uM measured after 24 hrs by PI staining based flow cytometry (reference value: 50.58%); format: functional
[34] = system: A-427; assay: Induction of apoptosis in human A-427 cells assessed as late apoptotic cells at 2.5 uM measured after 24 hrs by Annexin V-FITC/propidium iodide staining based flow cytometric analysis (reference value: 2.06%); format: functional
[35] = system: MCF7; assay: Cell cycle arrest in human MCF7 cells assessed as accumulation at G2/M phase at 1.5 uM measured after 24 hrs by PI staining based flow cytometry (reference value: 15.28%); format: functional
[36] = system: A-427; assay: Cell cycle arrest in human A-427 cells assessed as accumulation at G2/M phase at 5 uM measured after 24 hrs by PI staining based flow cytometry (reference value: 18.80%); format: functional
[37] = system: A-427; assay: Induction of apoptosis in human A-427 cells assessed as late apoptotic cells at 10 uM measured after 24 hrs by Annexin V-FITC/propidium iodide staining based flow cytometric analysis (reference value: 2.06%); format: functional
[38] = system: MCF7; assay: Induction of apoptosis in human MCF7 cells assessed as late apoptotic cells at 5 uM measured after 24 hrs by Annexin V-FITC/propidium iodide staining based flow cytometric analysis (reference value: 0.38%); format: functional

SMILES: C[C@H]1C/C=C/[C@H]2C(=O)[C@H](C)[C@@H](C)[C@H]3[C@H](Cc4c[nH]c5ccccc45)NC(=O)[C@]32C(=O)CCCC1
- IC50 [1]: > 50 µM
- IC50 [2]: > 50 µM
- IC50 [3]: > 50 µM
- IC50 [4]: > 50 µM
- IC50 [5]: > 50 µM
- IC50 [6]: > 50 µM
- IC50 [7]: > 50 µM
- IC50 [8]: > 50 µM

SMILES: COc1cccc2c1C(=O)c1c(O)c3c(c(O)c1C2=O)C[C@@](O)(C(=O)CO)C[C@@H]3O[C@H]1C[C@H](N)[C@H](O)[C@H](C)O1 [DOXORUBICIN HYDROCHLORIDE]
- IC50 [1]: 2.6 µM
- IC50 [2]: 2.9 µM
- IC50 [4]: 0.7 µM
- IC50 [8]: 0.4 µM

SMILES: CO[C@@H]1CC(=O)C[C@@H](C)C/C=C/[C@H]2C=C(C)[C@@H](C)[C@H]3[C@H](Cc4c[nH]c5ccccc45)NC(=O)[C@]32C1=O
- IC50 [1]: 43.8 µM
- IC50 [2]: 30.9 µM
- IC50 [3]: > 50 µM
- IC50 [4]: > 50 µM
- IC50 [5]: 23.3 µM
- IC50 [6]: > 50 µM
- IC50 [7]: > 50 µM
- IC50 [8]: 44.4 µM

SMILES: C=C1[C@@H](C)[C@H]2[C@H](Cc3c[nH]c4ccccc34)NC(=O)[C@]23C(=O)CCCC[C@@H](C)C/C=C/[C@H]3[C@@H]1O
- IC50 [1]: > 50 µM
- IC50 [2]: 45.3 µM
- IC50 [3]: > 50 µM
- IC50 [4]: > 50 µM
- IC50 [5]: 40.4 µM
- IC50 [6]: > 50 µM
- IC50 [7]: > 50 µM
- IC50 [8]: > 50 µM

SMILES: CC1=C(C)[C@H]2[C@H](Cc3c[nH]c4ccccc34)NC(=O)[C@]23C(=O)CCCC[C@@H](C)C/C=C/[C@H]3[C@@H]1O
- IC50 [1]: > 50 µM
- IC50 [2]: > 50 µM
- IC50 [3]: > 50 µM
- IC50 [4]: 46.3 µM
- IC50 [5]: > 50 µM
- IC50 [6]: 18.9 µM
- IC50 [7]: > 50 µM
- IC50 [8]: > 50 µM

SMILES: CC1=C[C@@H]2/C=C/C[C@H](C)CC(=O)[C@@H]3O[C@H]3C(=O)[C@]23C(=O)N[C@@H](Cc2c[nH]c4ccccc24)[C@@H]3[C@@H]1C
- IC50 [1]: 40.4 µM
- IC50 [2]: > 50 µM
- IC50 [3]: > 50 µM
- IC50 [4]: > 50 µM
- IC50 [5]: 44 µM
- IC50 [6]: > 50 µM
- IC50 [7]: > 50 µM
- IC50 [8]: 37.3 µM

SMILES: CC1=C(C)[C@H]2[C@H](Cc3c[nH]c4ccccc34)NC(=O)[C@]23C(=O)/C=C\CC[C@@H](C)C/C=C/[C@H]3[C@@H]1O
- Activity [9]: 42.41%
- IC50 [1]: 8.8 µM
- Activity [10]: 21.59%
- Activity [11]: 11.17%
- IC50 [2]: 11.2 µM
- IC50 [3]: 7.5 µM
- Activity [12]: 34.23%
- IC50 [4]: 41.8 µM
- Activity [13]: 71.45%
- IC50 [5]: 6.9 µM
- Activity [14]: 9.24%
- Activity [15]: 15.06%
- Activity [16]: 10.35%
- Activity [17]: 35.56%
- IC50 [6]: 10.1 µM
- Activity [18]: 20.59%
- IC50 [7]: 6.8 µM
- Activity [19]: 41.36%
- Activity [20]: 18.24%
- Activity [21]: 23.65%
- Activity [22]: 33.06%
- Activity [23]: 11.19%
- Activity [24]: 31.16%
- IC50 [8]: 10.7 µM
- Activity [25]: 8.06%
- Activity [26]: 12.83%
- Activity [27]: 45.18%
- Activity [28]: 21.26%
- Activity [29]: 17.94%
- Activity [30]: 82.7%
- Activity [31]: 22.03%
- Activity [32]: 20.64%
- Activity [33]: 17.36%
- Activity [34]: 32.65%
- Activity [35]: 58.41%
- Activity [36]: 37.05%
- Activity [37]: 33.54%
- Activity [38]: 11.69%

SMILES: CO[C@@H]1/C=C\[C@@H](C)C/C=C/[C@H]2[C@H](O)C(C)=C(C)[C@H]3[C@H](Cc4c[nH]c5ccccc45)NC(=O)[C@@]23C(=O)C1
- IC50 [1]: > 50 µM
- IC50 [2]: 26.1 µM
- IC50 [3]: > 50 µM
- IC50 [4]: > 50 µM
- IC50 [5]: 21.5 µM
- IC50 [6]: 41.5 µM
- IC50 [7]: > 50 µM
- IC50 [8]: > 50 µM

SMILES: CC1=C[C@@H]2/C=C/C[C@H](C)CCCCC(=O)[C@]23C(=O)N[C@@H](Cc2c[nH]c4ccccc24)[C@@H]3[C@@H]1C
- IC50 [1]: > 50 µM
- IC50 [2]: 38.5 µM
- IC50 [3]: 13.8 µM
- IC50 [4]: > 50 µM
- IC50 [5]: > 50 µM
- IC50 [6]: 20.3 µM
- IC50 [7]: > 50 µM
- IC50 [8]: > 50 µM

SMILES: CC(=O)O[C@@H]1CC(=O)C[C@@H](C)C/C=C/[C@H]2[C@H](O)C(C)=C(C)[C@H]3[C@H](Cc4c[nH]c5ccccc45)NC(=O)[C@@]23C1=O
- IC50 [1]: > 50 µM
- IC50 [2]: 21.2 µM
- IC50 [3]: > 50 µM
- IC50 [4]: > 50 µM
- IC50 [5]: 15.9 µM
- IC50 [6]: > 50 µM
- IC50 [7]: > 50 µM
- IC50 [8]: > 50 µM
